Literature values as cited in US20170209579A1, “NON-INVASIVE RADIOFREQUENCY FIELD TREATMENT FOR CANCER THERAPY” (Baylor College of Medicine, priority 2014, published 2017).

Tested on: tumor
Settings: Monsky et al.; cited from earlier work

In the case of `COc1cccc2c1C(=O)c1c(O)c3c(c(O)c1C2=O)C[C@@](O)(C(=O)CO)C[C@@H]3O[C@H]1C[C@H](N)[C@H](O)[C@H](C)O1` [free doxorubicin], the “accumulation and retention in the tumor after conventional RFA” value is given as “not”.
